Literature values as cited in patent publication US20030087789A1, “Emulsion containing a plant extract, method for producing said emulsion and for obtaining a plant extract” (priority 2000, published 2003).

How the values were obtained:
Escherichia coli = details: intestinal Escherichia coli

Q: Which “bacteriostatic and bactericidal effect” value (Escherichia coli) does the source give for `C=C(C)[C@@H]1CC[C@]2(CO)CC[C@]3(C)[C@H](CC[C@@H]4[C@@]5(C)CC[C@H](O)C(C)(C)[C@@H]5CC[C@]43C)[C@@H]12` [betulin] here?
A: The value was “bacteriostatic and bactericidal effect”.

Q: And the “bacteriostatic and bactericidal effect” value (Salmonella typhi)?
A: Its value is “bacteriostatic and bactericidal effect”.

Q: And the “bacteriostatic and bactericidal effect” value (Shigella flexneri)?
A: The value was “bacteriostatic and bactericidal effect”.

Q: What about the “bacteriostatic and bactericidal effect” value (Staphylococcus aureus) of the same compound?
A: Its value is “bacteriostatic and bactericidal effect”.

Q: And the “solubility in cold petroleum ether” value (cold petroleum ether (C5-C8 CH))?
A: Its value is “practically insoluble”.

Q: What about the “solubility in dichloromethane, chloroform and cold organic solvents” value (dichloromethane, chloroform and cold organic solvents) of the same compound?
A: Its value is “only slightly soluble”.

Q: And the “solubility in pyridine and tetrahydrofuran” value (pyridine and tetrahydrofuran)?
A: The value was “soluble”.

Q: And the solubility in water (water)?
A: The solubility in water was “practically insoluble”.

Q: What about the “solubility in water or water-alcohol mixtures” value (water or water-alcohol mixtures (up to 60% alcohol)) of the same compound?
A: Its value is “insoluble”.
